In patent publication US10899769B2, “Imidazopiperazinone inhibitors of transcription activating proteins” (Board of Regents, The University of Texas System, priority 2018, dated 2021):

Key:
[1] = molecular target: GST-CBP(1081-1197) bromodomain (Homo sapiens (Human), UniProt Q92793); experiment: CBP AlphaScreen Assay; conditions: binding to biotin-H4(1-21) Ac-K5/8/12/16
Method in brief: (§1)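 AlphaScreen binding of GST-bromodomain to biotin-H4(1-21) Ac-K5/8/12/16: 5 nM CBP with 20 nM peptide, or 2.5 nM BRD4 with 10 nM peptide, in 50 mM HEPES 7.5, […], 1 mM TCEP, 0.003% Tween-20. Compound preincubated 30 min, then beads 2 h, room temperature. IC50 from variable-slope fit.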

[2] = molecular target: BRD4(49-170) bromodomain (Homo sapiens (Human), UniProt O60885); experiment: BRD4 AlphaScreen Assay; conditions: binding to biotin-H4(1-21) Ac-K5/8/12/16
Method in brief: as §1

Chain of GST-CBP(1081-1197) bromodomain (Q92793 1081-1197): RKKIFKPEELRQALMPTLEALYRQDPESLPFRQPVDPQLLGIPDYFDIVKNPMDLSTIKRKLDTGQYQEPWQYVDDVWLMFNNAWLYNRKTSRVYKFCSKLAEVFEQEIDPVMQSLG

- IC50 [1]: 2 nM
- IC50 [2]: 106 nM
SMILES: Cc1ncc(-c2cc3cccc(-c4nc(C5CCOCC5)n5c4CN(C)C(=O)C5C)c3cn2)s1 (single isomer, unassigned) [Example 31b, 5,7-Dimethyl-1-(3-(2-methylthiazol-5-yl)isoquinolin-8-yl)-3-(tetrahydro-2H-pyran-4-yl)-7,8-dihydroimidazo[1,5-a]pyrazin-6(5H)-one]
